From patent publication US20180251431A1 (VERTEX PHARMACEUTICALS INCORPORATED, priority 2016, published 2018) come the findings set out here.

The test system of this assay is HEK293 cells. Briefly: HEK293 VLCFA-LPC IC50 determination (13C-labeled C26:0 LPC by UHPLC/MS). The format is cell-based, human. The conditions noted are these: Homo sapiens, HEK293, HEK293 cells; average of one or more replicates; read-out: Average HEK293 IC50. The procedure, abridged:
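Suspension HEK293 cells (final 0.5 million/mL after mixing with equal volume) incubated 48 hours with compound plus 13C-acetate (1.0 mg/mL in added media), shaking at 37° C. Lipids extracted with hexane/isopropanol or methanol, C13:0 LPC standard. UHPLC/MS of 13C-labeled C26:0 LPC (638.500/104.100 m/z); IC50 by four-parameter fit.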
For the molecule `Cn1ccc(-n2ccc(NC(=O)C3(c4ccccc4F)CC3)n2)n1` [Compound 229, 1-(2-fluorophenyl)-N-[1-(1-methylpyrazol-3-yl)pyrazol-3-yl]cyclopropanecarboxamide], the IC50 (usually the concentration at which inhibition is half-maximal) worked out at 3.5 µM. In the case of `Cn1ccc(-n2ccc(NC(=O)Cc3ccccc3F)n2)n1` [Compound 230, 2-(2-fluorophenyl)-N-[1-(1-methylpyrazol-3-yl)pyrazol-3-yl]acetamide] it was > 5 µM; in that of `Cn1ccc(-n2ccc(NC(=O)C3(c4ccccc4)CC3)n2)n1` [Compound 231, N-[1-(1-methylpyrazol-3-yl)pyrazol-3-yl]-1-phenyl-cyclopropanecarboxamide], > 5 µM; in that of `O=C(Nc1ccn(-c2cnccn2)n1)C1(c2ccccc2)CC1` [Compound 233, 1-phenyl-N-(1-pyrazin-2-ylpyrazol-3-yl)cyclopropanecarboxamide], 1.5 µM. In the case of `O=C(Nc1ccn(-c2cccnc2)n1)C1(c2ccccc2)CC1` [Compound 234, 1-phenyl-N-[1-(3-pyridyl)pyrazol-3-yl]cyclopropanecarboxamide] it was 0.029 µM. Turning to `O=C(Cc1ccccc1F)Nc1ccn(-c2cccnc2)n1` [Compound 235, 2-(2-fluorophenyl)-N-[1-(3-pyridyl)pyrazol-3-yl]acetamide], the IC50 came to 0.32 µM. With `O=C(Cc1cncnc1)Nc1ccn(-c2ccnc(F)c2)n1` [Compound 236, N-[1-(2-fluoro-4-pyridyl)pyrazol-3-yl]-2-pyrimidin-5-yl-acetamide] the figure was > 5 µM; with `O=C(Nc1ccn(-c2ccnc(F)c2)n1)C1(c2ccccc2)CC1` [Compound 237, N-[1-(2-fluoro-4-pyridyl)pyrazol-3-yl]-1-phenyl-cyclopropanecarboxamide], 0.022 µM.

Take `O=C(Nc1ccn(-c2ccnc(F)c2)n1)C1(c2ccc(I)cc2)CC1` [Compound 238, N-[1-(2-fluoro-4-pyridyl)pyrazol-3-yl]-1-(4-iodophenyl)cyclopropanecarboxamide]: the concentration for half-maximal inhibition (IC50) was found to be 0.12 µM.

Consider `O=C(Nc1ccn(-c2cccnn2)n1)C1(c2ccccc2F)CC1` [Compound 239, 1-(2-fluorophenyl)-N-(1-pyridazin-3-ylpyrazol-3-yl)cyclopropanecarboxamide], for which the IC50 turned out to be 0.3 µM. With `O=C(Nc1ccn(-c2ncccn2)n1)C1(c2ccccc2F)CC1` [Compound 240, 1-(2-fluorophenyl)-N-(1-pyrimidin-2-ylpyrazol-3-yl)cyclopropanecarboxamide] the figure was 4.4 µM; with `Cc1ncc(-n2ccc(NC(=O)C3(c4ccccc4F)CC3)n2)cn1` [Compound 241, 1-(2-fluorophenyl)-N-[1-(2-methylpyrimidin-5-yl)pyrazol-3-yl]cyclopropanecarboxamide], > 5 µM. With `N#Cc1ccccc1C1(C(=O)Nc2ccn(-c3ccccc3)n2)CC1` [Compound 242, 1-(2-cyanophenyl)-N-(1-phenylpyrazol-3-yl)cyclopropanecarboxamide], the IC50 is > 2 µM.

As to `N#Cc1cccc(C2(C(=O)Nc3ccn(-c4ccnc(F)c4)n3)CC2)c1` [Compound 243, 1-(3-cyanophenyl)-N-[1-(2-fluoro-4-pyridyl)pyrazol-3-yl]cyclopropanecarboxamide], the half-inhibitory concentration (IC50) worked out at 0.31 µM. With `N#Cc1cccc(C2(C(=O)Nc3ccn(-c4ccccc4)n3)CC2)c1` [Compound 244, 1-(3-cyanophenyl)-N-(1-phenylpyrazol-3-yl)cyclopropanecarboxamide] the figure was 0.28 µM. In the case of `Cc1cccc(C2(C(=O)Nc3ccn(-c4ccnc(F)c4)n3)CC2)c1` [Compound 245, N-[1-(2-fluoro-4-pyridyl)pyrazol-3-yl]-1-(m-tolyl)cyclopropanecarboxamide] it was 0.26 µM; in that of `CCOc1ccc(C2(C(=O)Nc3ccn(-c4ccnc(F)c4)n3)CC2)cc1` [Compound 246, 1-(4-ethoxyphenyl)-N-[1-(2-fluoro-4-pyridyl)pyrazol-3-yl]cyclopropanecarboxamide], 2.8 µM.
